ChEMBL document CHEMBL1124487, “Acid-sensitive latent inhibitors for proteolytic enzymes: synthesis and characterization” (J Med Chem, 1989)

Columns and labels:
[1] = biological target: T1, Papain (Carica papaya, UniProt P00784); assay: Inhibition of papain-catalyzed hydrolysis of BzArg p-nitroanilide by compound at pH 5
T1 sequence (P00784 whole entry): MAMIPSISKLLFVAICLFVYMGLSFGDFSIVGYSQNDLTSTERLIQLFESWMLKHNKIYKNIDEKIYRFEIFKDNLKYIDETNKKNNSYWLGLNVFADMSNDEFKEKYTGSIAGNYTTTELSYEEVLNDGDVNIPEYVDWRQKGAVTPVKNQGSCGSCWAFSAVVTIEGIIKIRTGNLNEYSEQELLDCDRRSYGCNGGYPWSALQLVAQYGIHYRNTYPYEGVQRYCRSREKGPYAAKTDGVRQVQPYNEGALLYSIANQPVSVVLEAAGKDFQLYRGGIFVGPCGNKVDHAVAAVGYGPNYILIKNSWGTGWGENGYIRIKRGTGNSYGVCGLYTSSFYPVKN

[2] = biological target: T1, Papain; assay: Inhibition of papain-catalyzed hydrolysis of BzArg p-nitroanilide by compound at pH 5.5
[3] = biological target: T1, Papain; assay: Inhibition of papain-catalyzed hydrolysis of BzArg p-nitroanilide by compound at pH 7
[4] = biological target: T2, Papain (Carica papaya) (UniProt P00784)
T2 sequence (whole entry): T1 sequence (P00784 whole entry)
Description: Initial rate of reaction between papain and BzArg p-nitro-anilide in the presence of 400 uM at pH 7

CC(=O)N[C@@H](C)C(=O)N/N=C/CNC(=O)c1ccccc1
Ki [1]: 38 µM | Ki [2]: 25 µM | Ki [3]: 30 µM | Kix [4]: 1 mM
